The values below come from patent US20240401154A1, “SYNTHESIS AND PREPARATION OF ULTRA-LOW VISCOSITY AND HIGH MAGNETIC SUSCEPTIBILITY MAGNETIC IONIC LIQUIDS” (priority 2023, published 2024).

The conditions of data set [1]: SQUID magnetometer; previously studied MILs, Table 2; cited from earlier work.
The conditions of data set [2]: previously referenced MILs, cited from earlier work.
The conditions of data set [3]: GC-FID; previously referenced MILs; cited from earlier work.
For data set [4] the following is noted: previously studied MILs, Table 2, cited from earlier work.
The nature of data set [5]: Viscosity, Brookfield DVI cone and plate viscometer. The following applies: 21.7° C.; neat MIL dried 48 hours under vacuum. Type of data set: physicochemical. The procedure, abridged:
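Cone and plate viscometer with CPA-51Z spindle, about 0.5 g of each MIL after 48 h vacuum drying. Measured at 21.6–21.7 °C.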

Data set [6] can be described thus: Solubility of MILs in organic solvents and water. Type of data set: physicochemical. The text has this: The solubility of lanthanide and transition metal MILs was investigated in popular traditional organic solvents. […]
The solubility of lanthanide and transition metal MILs was investigated in popular traditional organic solvents.

Data set [7] is described as follows: Thermal stability, MIL as GC stationary phase with FID. Type of data set: physicochemical. The note with it: exponential increase in response beyond 2,000 pA. The procedure, abridged:
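TGA run from 40 to 350 °C at 5 °C min^−1. For a more sensitive check, MILs served as GC stationary phase under an oven program of 40 to 200 °C at 1 °C min^−1, with decomposition/degradation products detected by FID.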

The nature of data set [8]: Thermal stability by thermogravimetric analysis (TGA). Type of data set: physicochemical. The following applies: TGA at 10% weight loss. In short, it runs like this:
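Mass loss measured by TGA from 40 to 350 °C at 5 °C min^−1. Degradation also checked with the MILs used as GC stationary phase, oven 40 to 200 °C at 1 °C min^−1, with FID detection of decomposition products.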

The nature of data set [9]: Effective magnetic moment from magnetic susceptibility balance (MSB). Type of data set: physicochemical. The following applies: per formula unit. In short, it runs like this:
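Magnetic susceptibility (XM) measured on a magnetic susceptibility balance for 15 rare-earth and transition-metal MILs. μeff derived from XM and the measurement temperature T. Transition-metal MILs also checked by SQUID magnetometry for paramagnetism and any magnetic transition.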

Where [10] appears, read: acetone, chloroform, dichloromethane, acetonitrile, methanol, ethanol, diethyl ether, ethyl acetate, isopropanol at 20% (w/v).
Where [11] appears, read: hexane, heptane, benzene, toluene at 10% (w/v).
Where [12] appears, read: hexane, heptane, benzene, toluene at 20% (w/v).

Where two headings read alike, the source gives them in different places. Marks after values point to notes of the source that are not given here.

As for `CCCCCCCCN(CCCCCCCC)C(=O)COCC(=O)N(CCCCCCCC)CCCCCCCC.CCCCCCCCN(CCCCCCCC)C(=O)COCC(=O)N(CCCCCCCC)CCCCCCCC.O=C(C=C([O-])C(F)(F)F)C(F)(F)F.O=C(C=C([O-])C(F)(F)F)C(F)(F)F.O=C(C=C([O-])C(F)(F)F)C(F)(F)F.O=C(C=C([O-])C(F)(F)F)C(F)(F)F.O=C(C=C([O-])C(F)(F)F)C(F)(F)F.O=C(C=C([O-])C(F)(F)F)C(F)(F)F.[Co+2].[Co+2].[Co+2]` [[Co(TODGA)2][Co(hfacac)3]2], the Effective magnetic moment in data set [1] is given as 13.34^f. The Solubility result is “S^b (soluble in acetone, chloroform, dichloromethane, acetonitrile, methanol, ethanol, diethyl ether, ethyl acetate, and isopropanol at 20% (w/v).)” in [2] (setting [10]); “S^a (soluble in hexane, heptane, benzene, and toluene at 10% (w/v).)” in data set [2] (setting [11]); “S^f (insoluble in water at 0.01% (w/v).)” in data set [2] (water at 0.01% (w/v)). Also, the “Onset of MIL volatilization (° C.)^1” value in data set [3] was 231 °C. For the same molecule, in data set [4] (reported at 19.9° C.), the Viscosity was 28,310^e.
On to `CCCCCCCCN(CCCCCCCC)C(=O)COCC(=O)N(CCCCCCCC)CCCCCCCC.CCCCCCCCN(CCCCCCCC)C(=O)COCC(=O)N(CCCCCCCC)CCCCCCCC.CCCCCCCCN(CCCCCCCC)C(=O)COCC(=O)N(CCCCCCCC)CCCCCCCC.O=C(C=C([O-])C(F)(F)F)C(F)(F)F.O=C(C=C([O-])C(F)(F)F)C(F)(F)F.O=C(C=C([O-])C(F)(F)F)C(F)(F)F.O=C(C=C([O-])C(F)(F)F)C(F)(F)F.O=C(C=C([O-])C(F)(F)F)C(F)(F)F.O=C(C=C([O-])C(F)(F)F)C(F)(F)F.O=C(C=C([O-])C(F)(F)F)C(F)(F)F.O=C(C=C([O-])C(F)(F)F)C(F)(F)F.O=C(C=C([O-])C(F)(F)F)C(F)(F)F.O=C(C=C([O-])C(F)(F)F)C(F)(F)F.O=C(C=C([O-])C(F)(F)F)C(F)(F)F.O=C(C=C([O-])C(F)(F)F)C(F)(F)F.[Dy+3].[Dy+3].[Dy+3].[Dy+3]` [[Dy(TODGA)3][Dy(hfacac)4]3], for which the Effective magnetic moment in data set [1] is reported as 20.00^f. The Solubility result in [2] (setting [10]) was “S^b (soluble in acetone, chloroform, dichloromethane, acetonitrile, methanol, ethanol, diethyl ether, ethyl acetate, and isopropanol at 20% (w/v).)”; in data set [2] (setting [11]), “S^a (soluble in hexane, heptane, benzene, and toluene at 10% (w/v).)”; in data set [2] (setting [12]) it was “S^c (soluble in hexane, heptane, benzene, and toluene at 20% (w/v).)”; in [2] (water at 0.01% (w/v)) it was “S^f (insoluble in water at 0.01% (w/v).)”. For the same molecule, in data set [3], the “Onset of MIL volatilization (° C.)^1” value is 175 °C. Further, the Viscosity in [4] (reported at 19.9° C.) is recorded as 9,210^e.
`CCCCCCCCN(CCCCCCCC)C(=O)COCC(=O)N(CCCCCCCC)CCCCCCCC.CCCCCCCCN(CCCCCCCC)C(=O)COCC(=O)N(CCCCCCCC)CCCCCCCC.CCCCCCCCN(CCCCCCCC)C(=O)COCC(=O)N(CCCCCCCC)CCCCCCCC.O=C(C=C([O-])C(F)(F)F)C(F)(F)F.O=C(C=C([O-])C(F)(F)F)C(F)(F)F.O=C(C=C([O-])C(F)(F)F)C(F)(F)F.O=C(C=C([O-])C(F)(F)F)C(F)(F)F.O=C(C=C([O-])C(F)(F)F)C(F)(F)F.O=C(C=C([O-])C(F)(F)F)C(F)(F)F.O=C(C=C([O-])C(F)(F)F)C(F)(F)F.O=C(C=C([O-])C(F)(F)F)C(F)(F)F.O=C(C=C([O-])C(F)(F)F)C(F)(F)F.O=C(C=C([O-])C(F)(F)F)C(F)(F)F.O=C(C=C([O-])C(F)(F)F)C(F)(F)F.O=C(C=C([O-])C(F)(F)F)C(F)(F)F.[Gd+3].[Gd+3].[Gd+3].[Gd+3]` [[Gd(TODGA)3][Gd(hfacac)4]3]: the Effective magnetic moment in data set [1] is on record as 14.90^f. Besides, the Solubility entry in [2] (setting [10]) is “S^b (soluble in acetone, chloroform, dichloromethane, acetonitrile, methanol, ethanol, diethyl ether, ethyl acetate, and isopropanol at 20% (w/v).)”; in [2] (setting [11]) it was “S^a (soluble in hexane, heptane, benzene, and toluene at 10% (w/v).)”; in data set [2] (setting [12]), “S^c (soluble in hexane, heptane, benzene, and toluene at 20% (w/v).)”; in [2] (water at 0.01% (w/v)) it was “S^f (insoluble in water at 0.01% (w/v).)”. In addition, in [3], the “Onset of MIL volatilization (° C.)^1” value was 183 °C. The Viscosity in data set [4] (reported at 19.9° C.) was 13,640^e.
As to `CCCCCCCCCCCCCC[P+](CCCCCC)(CCCCCC)CCCCCC.CCCCCCCCCCCCCC[P+](CCCCCC)(CCCCCC)CCCCCC.[Cl-].[Cl-].[Cl-].[Cl-].[Co+2]` [[P66614]2[CoCl4]], the Effective magnetic moment in data set [1] is 4.45^f. The Viscosity in data set [4] (reported at 20.0° C.) is recorded as 123,500^d.
As to `CCCCCCCCCCCCCC[P+](CCCCCC)(CCCCCC)CCCCCC.CCCCCCCCCCCCCC[P+](CCCCCC)(CCCCCC)CCCCCC.[Cl-].[Cl-].[Cl-].[Cl-].[Mn+2]` [[P66614]2[MnCl4]], in [1], the Effective magnetic moment was 5.81^f. For the same molecule, the Viscosity in [4] (reported at 20.0° C.) was 112,300^d.
As for `CCCCCCCCCCCCCC[P+](CCCCCC)(CCCCCC)CCCCCC.CCCCCCCCCCCCCC[P+](CCCCCC)(CCCCCC)CCCCCC.CCCCCCCCCCCCCC[P+](CCCCCC)(CCCCCC)CCCCCC.[Cl-].[Cl-].[Cl-].[Cl-].[Cl-].[Cl-].[Gd+3]` [[P66614]3[GdCl6]], the Effective magnetic moment in [1] is 7.86^f. Moreover, the Viscosity in data set [4] (reported at 20.0° C.) is on record as 28,230^d.
Consider `CCCCCCCCOC(=O)COCC(=O)OCCCCCCCC.CCCCCCCCOC(=O)COCC(=O)OCCCCCCCC.CCCCCCCCOC(=O)COCC(=O)OCCCCCCCC.CCCCCCCCOC(=O)COCC(=O)OCCCCCCCC.CCCCCCCCOC(=O)COCC(=O)OCCCCCCCC.CCCCCCCCOC(=O)COCC(=O)OCCCCCCCC.O=C(C=C([O-])C(F)(F)F)C(F)(F)F.O=C(C=C([O-])C(F)(F)F)C(F)(F)F.O=C(C=C([O-])C(F)(F)F)C(F)(F)F.O=C(C=C([O-])C(F)(F)F)C(F)(F)F.O=C(C=C([O-])C(F)(F)F)C(F)(F)F.O=C(C=C([O-])C(F)(F)F)C(F)(F)F.O=C(C=C([O-])C(F)(F)F)C(F)(F)F.O=C(C=C([O-])C(F)(F)F)C(F)(F)F.[Co+2].[Ho+3].[Ho+3]` [compound 15], for which the “Viscosity (cP)” value in data set [5] is given as 216.4 cP. Further, the Solubility entry in data set [6] (setting [10]) was “S^b (soluble in acetone, chloroform, dichloromethane, acetonitrile, methanol, ethanol, diethyl ether, ethyl acetate, and isopropanol at 20% (w/v).)”; in data set [6] (setting [11]), “S^a (soluble in hexane, heptane, benzene, and toluene at 10% (w/v).)”; in [6] (setting [12]), “S^c (soluble in hexane, heptane, benzene, and toluene at 20% (w/v).)”; in [6] (twelve organic solvents (without acetonitrile) at 50% (w/v)), “S^d (soluble in acetone, chloroform, dichloromethane, methanol, ethanol, diethyl ether, ethyl acetate, isopropanol hexane, heptane, benzene, and toluene at 50% (w/v).)”; in [6] (water at 0.01% (w/v)), “S^f (insoluble in water at 0.01% (w/v).)”. Further, the “Onset of MIL volatilization (° C.)^1” value in data set [7] is 115 °C. The “Onset of MIL volatilization (° C.)^2” value in data set [8] came out at 183.3 °C. The “μeff, effective magnetic moment” value in data set [9] is listed as 15.56 μB.
